Measured values from US5571819A, “Imidazopyridines as muscarinic agents” (priority 1994, dated 1996).
Where two headings read alike, the source gives them in different places.

Tests used:
[1] = molecular target: T1, ml receptors (muscarinic receptor subtypes) (Homo sapiens, UniProt P11229); assay: biochemical; type: binding
T1 sequence (P11229 1-460): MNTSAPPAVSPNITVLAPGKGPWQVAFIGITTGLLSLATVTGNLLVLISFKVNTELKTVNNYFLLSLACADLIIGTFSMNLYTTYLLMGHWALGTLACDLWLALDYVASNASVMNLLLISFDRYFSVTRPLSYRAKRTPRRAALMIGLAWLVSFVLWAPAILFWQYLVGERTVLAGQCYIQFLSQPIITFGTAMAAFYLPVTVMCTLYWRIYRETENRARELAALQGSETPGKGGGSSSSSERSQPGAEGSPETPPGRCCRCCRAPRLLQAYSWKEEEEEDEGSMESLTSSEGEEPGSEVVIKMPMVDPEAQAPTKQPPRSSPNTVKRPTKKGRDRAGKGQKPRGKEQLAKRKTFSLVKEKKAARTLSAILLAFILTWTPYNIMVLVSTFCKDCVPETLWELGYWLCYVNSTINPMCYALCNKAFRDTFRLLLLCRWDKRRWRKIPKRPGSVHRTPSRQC

[2] = in vivo; cited from earlier work
[3] = system: patients with mild to moderate Alzheimer's Disease; details: cited from earlier work; for improvement in memory in patients: mild to moderate Alzheimer's Disease
[4] = molecular target: T2, M1 acetylcholine receptors (Homo sapiens, UniProt P11229); assay: Stimulation of phosphoinositide (PI) hydrolysis in CHO cells expressing M1 acetylcholine receptors; type: cell-based; details: 1 h, read-out: % PI Hydrolysis ml receptors in CHO cells maximum %, carbachol = 100%
T2 sequence (P11229 1-460): T1 sequence (P11229 1-460)

[5] = ml 3H QNB Binding in CHO cells Ki (μM), [3H]QNB 0.23 nM, 37 °C, 1 hour, CHO cells, ml
[6] = read-out: ml 3H QNB Binding in CHO cells Ki, [3H]QNB 0.23 nM, 37 °C, 1 hour, CHO cells, ml

| SMILES | Ki [1, 5] | other results |
| --- | --- | --- |
| Cn1cnc2c(O[C@H]3CN4CC[C@@H]3C4)ncnc21 (relative stereo) [Example 9, endo-6-(1Aza-bicyclo[2.2,1]hept-3-yloxy)-9-methylpurine] | 27 µM | – |
| c1ccc(Cn2cnc3c(OC4CN5CCC4CC5)nccc32)cc1 (stereo not drawn) [Example 5, 3-(1-Benzyl-1H-imidazo[4,5-c]pyridin-4-yloxy)-1-aza-bicyclo[2.2.2]octane] | 3.85 µM | – |
| OC1(c2nc3c(Cl)nccc3n2Cc2ccccc2)CN2CCC1CC2 (stereo not drawn) [Example 14, 3-(1-Benzyl-4-chloro-1H-imidazo[4,5-c]pyridin-2-yl)-1-azabicyclo[2.2.2]octan-3-ol] | 1.65 µM | – |
| Cn1cnc2c(O[C@@H]3CN4CC[C@@H]3C4)ncnc21 (relative stereo) [Example 10, exo-6-(1Aza-bicyclo[2,2.1]hept-3-yloxy)-9-methylpurine] | 17.1 µM | – |
| CCN1CCCC(O)(c2nc3c(Cl)nccc3n2Cc2ccccc2)C1 (stereo not drawn) [Example 15, 3-(1-Benzyl-4-chloro-1H-imidazo[4,5-c]pyridin-2-yl)-1-ethyl-piperidin-3-ol] | – | Ki ([1]; read-out: ml 3H QNB Binding in CHO cells Ki): 9.3 µM |
| COC(=O)C1=CCCN(C)C1 [arecoline] | – | half-life [2]: short half-life; improvement in memory in patients [3]: memory improvement in patients with mild to moderate Alzheimer's Disease |
| Cn1cnc2c(O[C@H]3CN4CC[C@@H]3C4)nccc21 (single isomer, unassigned) [Example 3, (-)-endo-4-(1-Aza-bicyclo[2.2.1]hept-3-yloxy)-1-methyl-1H-imidazo[4,5-c]pyridine] | 14.2 µM | Emax [4]: 26.2% |
| c1ccc(Cn2cnc3c(OC4CN5CCC4CC5)nccc32)cc1 (single isomer, unassigned; (+)) [Example 6, (+)-3-(1-Benzyl-1H-imidazo[4,5-c]pyridin-4-yloxy)-1-aza-bicyclo[2.2.2]octane] | 13.4 µM | – |
| Cn1c(C2(O)CN3CCC2CC3)nc2ncccc21 (stereo not drawn) [Example 13, 3-(1-Methyl-1H-imidazo[4,5-b]pyridin-2-yl)-1-aza-bicyclo[2.2.2]octan-3-ol] | – | Ki [1, 6]: 1.42 µM |
| Cn1cnc2c(OCC3CN4CCC3CC4)nccc21 (stereo not drawn) [Example 8, 3-(1-Methyl-1H-imidazo[4,5,c]pyridin-4-yloxymethyl)-1-aza-bicyclo[2.2.2]octane] | 2.65 µM | – |
| c1ccc(Cn2cnc3c(OC4CN5CCC4CC5)nccc32)cc1 (single isomer, unassigned) [Example 7, (--)-3-(1-Benzyl-1H-imidazo[4,5-c]pyridin-4-yloxy)-1-aza-bicyclo[2.2.2]octane] | 17.6 µM | – |
| Cn1cnc2c(O[C@H]3CN4CC[C@@H]3C4)nccc21 (relative stereo) [Example 1, endo-4-(1-Aza-bicyclo[2.2.1]hept-3-yloxy)-1-methyl-1H-imidazo[4,5-c]pyridine] | 19.3 µM | Emax [4]: 21.7% |
| Nc1c2c(nc3ccccc13)CCCC2 [tacrine] | – | adverse side effects ([3]; especially at the higher doses): adverse side effects especially at the higher doses where it is most effective; improvement in memory in patients [3]: improvement in memory can be shown in patients with mild to moderate Alzheimer's Disease |
| Cn1cnc2c(O[C@@H]3CN4CC[C@@H]3C4)nccc21 (relative stereo) [Example 4, (exo)-4-(1-Aza-bicyclo[2,2,1]hept-3-yloxy)-1-methyl-1H-imidazo[4,5-c]pyridine] | – | Ki [1, 6]: 20.6 µM |
